From patent publication US6825180B2, “Pyridopyrimidine compounds and their uses” (Cell Therapeutics, Inc., priority 2001, dated 2004) come the findings set out here.

Values joined by “and” are separate entries in the source; they are usually repeats but may differ in a detail not shown here. Equal entries are not always repeated. Structures can show the parent of a compound that is named as a salt.

In test [1] the test system is IL-12 signaling. Nature of the test: IL-12 dependent in vitro T-helper cell (Th1) differentiation assay. The conditions noted are these: inhibition of IL-12 induced Th1 differentiation as defined by IFN-γ production upon secondary stimulation with anti-CD3 alone, splenic T cells, seven days culture. In kind it is cell-based. As to the method: This example illustrates the inventive compounds' ability to suppress Th1 differentiation in vitro by blocking IL-12 signaling. The compounds from Examples 1, 2, 6, and 7 were tested in an IL-12 dependent in vitro T-helper cell differentiation assay as described in LeGross et al., J. Exp. Med., 172:921-929 (1990). Recombinant IL-12 was used to induce Th1 differentiation. Splenic T cells were purified utilizing the antibodies RA3-3A1/6.1 (anti-B220), J11d and MAR18.5 (anti-rat kappa chain) to deplete the B cells by magnetic bead separation, as described in Coon et al, J. Immuno., 163:6567-6574 (1989). Splenic T cells were stimulated at 5×10^5/ml with insoluble anti-CD3 alone (145-2C11, Pharmingen, San Diego, Calif.), or anti-CD3 and 5 U/ml IL-12, with and without each inventive compound. After seven days, equal numbers of viable cells were restimulated for 24 hours with anti-CD3 without the inventive compounds, and the supernatants were collected and assayed for IFN—γ production. IFN-γ and IL-4 levels were measured by ELISA test specific for IFN-γ and IL-4.
Th1 differentiation was induced by culturing anti-CD3 stimulated T cells in the presence of exogenous IL-12. […] It was observed that the presence of the tested compounds during T cell activation inhibited Th1 differentiation, which had been enhanced by the addition of exogenous IL-12. The values in the “IC50 μM” column were determined by measuring the inhibition of IL-12 induced Th1 differentiation as defined by IFN-γ production upon secondary stimulation with anti-CD3 alone. None of the compounds affected the viability or recovery of T cells after one week of culture.

The test system of test [2] is IL-12 signaling. Nature of the test: Modified acute assay. In kind it is cell-based. The conditions noted are these: T-cell, 72 h, purified splenic T cells, anti-CD3 or lectin stimulation, Interferon-γ by ELISA. As for the experimental part: The compounds of Examples 3-10 were tested in a modified acute assay which is used to screen for compounds that perturb IL-12 signaling. The assay measures the biological effects of compounds on IL-12 signaling during the differentiation of T1 responses rather than the outcome of differentiation, as measured using a T1 Differentiation Assay. Purified splenic T cells were stimulated either by crosslinking their T cell receptors with immobilized anti-CD3 antibody or by binding with a soluble lectin (e.g. Conconavalin A). The cells were incubated for 72 hours after which time supernatants are collected and relative Interferon-γ amounts determined by ELISA. The Modified Acute Assay measured a directed IL-12 response derived from a population of cells in a variety of activation states and can be thought of as a more stochastic response.
(ELISA stands for enzyme-linked immunosorbent assay.)

In the case of `Cc1cc(=O)c2c(=O)n(CCCC[C@@H](C)O)c(=O)n(C)c2[nH]1` [Example 1, (R)-1,7-Dimethyl-3-(5-hydroxyhexyl)pyrido[2,3-d]pyrimidine-2,4,5(1H,3H,8H)-trione], the half-inhibitory concentration (IC50) in the test with IL-12 signaling [1] (T-cell, 168 h) was 19 µM; in the test on IL-12 signaling [1] it was 24 µM and 28 µM.

In the test on IL-12 signaling [1] (T-cell, 168 h), `CO[C@H](C)CCCCn1c(=O)c2c(=O)cc(C)[nH]c2n(C)c1=O` [Example 2, (R)-1,7-Dimethyl-3-(5-methoxyhexyl)pyrido[2,3-d]pyrimidine-2,4,5(1H,3H,8H)-trione] returned an IC50 of 7 µM.

As for `CNc1cc(C)nc2c1c(=O)n(CCCC[C@@H](C)O)c(=O)n2C` [Example 3, (R)-1,7-Dimethyl-3-(5-hydroxyhexyl)-5-(N-methylamino)pyrido[2,3-d]pyrimidine-2,4(1H,3H)-dione], in the test with IL-12 signaling [2], the half-maximal inhibitory concentration (IC50) was less than 10 µM.

On to `Cc1cc(=O)c2c(=O)n(CCCC[C@@H](C)O)c(=O)n(C)c2n1Cc1ccccc1` [Example 5, (R)-8-Benzyl-1,7-dimethyl-3-(5-hydroxyhexyl)pyrido[2,3-d]pyrimidine-2,4,5(1H,3H,8H)-trione], for which the concentration for half-maximal inhibition (IC50) in the test on IL-12 signaling [2] was 8 µM.

As to `Cc1cc(=O)c2c(=O)n(CCCC[C@@H](C)N(C)C)c(=O)n(C)c2[nH]1` [Example 6, (R)-1,7-Dimethyl-3-(5-(N,N-dimethylamino)hexyl)pyrido[2,3-d]pyrimidine-2,4,5(1H,3H,8H)-trione, Acetic Acid Salt], the IC50 with IL-12 signaling [1] (T-cell, 168 h) came out at 14 µM; with IL-12 signaling [1] (Acetic Acid Salt) it was 16 µM; with IL-12 signaling [2] it was 9 µM.

Regarding `Cc1cc(N(C)C)c2c(=O)n(CCCC[C@@H](C)N(C)C)c(=O)n(C)c2n1` [Example 7, (R)-1,7-Dimethyl-5-(N,N-dimethylamino)-3-(5-(N,N-dimethylamino)hexyl)pyrido[2,3-d]pyrimidine-2,4(1H,3H)dione], the IC50 in the test with IL-12 signaling [1] (T-cell, 168 h) was more than 40 µM; with IL-12 signaling [2] it was 26 µM.

With `Cc1cc(C)c2c(=O)n(CCCC[C@@H](C)O)c(=O)n(C)c2n1` [Example 8, (R)-3-(5-Hydroxyhexyl)-1,5,7-trimethylpyrido[2,3-d]pyrimidine-2,4(1H,3H)-dione], the half-inhibitory concentration (IC50) in the test with IL-12 signaling [2] amounted to 33 µM.

In the test on IL-12 signaling [2], `Cc1cc(=O)[nH]c2c1c(=O)n(CCCC[C@@H](C)O)c(=O)n2C` [Example 9, (R)-1,5-Dimethyl 3-(5-hydroxyhexyl)pyrido[2,3-d]pyrimidine-2,4,7(1H,3H,8H)-trione] returned a 50% inhibitory concentration (IC50) of more than 40 µM.

In the test with IL-12 signaling [2], `Cc1cc(N(C)C)nc2c1c(=O)n(CCCC[C@@H](C)O)c(=O)n2C` [Example 10, (R)-1,5-Dimethyl-7-(N,N-dimethylamino)-3-(5-hydroxyhexyl)-2,4-pyrido[2,3-d]pyrimidine-2,4(1H,3H)-dione] yielded an IC50 of 6 µM.

For orientation: IC50 means the concentration needed to halve the response being measured.
